Laboratory results: patent US20240122909A1, “TREATMENTS OF HEREDITARY ANGIOEDEMA” (KALVISTA PHARMACEUTICALS LIMITED, priority 2021, published 2024)

Key:
[1] = Phase 1 single ascending dose study, safety and tolerability; assay type: in vivo, human; conditions: phase I trial, healthy males
Description: This study was a randomized, double-blind, placebo-controlled single ascending dose (SAD) and crossover studies for food effect and capsule/tablet formulations.

[2] = biological target: PKa (Homo sapiens, UniProt P03952); assay: Protection of HK from PKa-mediated cleavage in DXS-stimulated HAE and control plasma; assay type: biochemical; conditions: HAE and healthy control plasma stimulated with dextran sulfate, WES
PKa, sequence (P03952 391-638 limits assumed): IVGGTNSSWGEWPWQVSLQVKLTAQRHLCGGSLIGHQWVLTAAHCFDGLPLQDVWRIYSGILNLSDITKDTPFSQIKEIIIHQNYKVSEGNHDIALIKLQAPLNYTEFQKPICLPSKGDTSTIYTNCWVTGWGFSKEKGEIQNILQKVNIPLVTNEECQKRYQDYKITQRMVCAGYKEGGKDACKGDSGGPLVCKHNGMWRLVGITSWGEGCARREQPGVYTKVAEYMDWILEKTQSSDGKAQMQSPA
PKa, sequence (P03952 20-390 partner limits assumed): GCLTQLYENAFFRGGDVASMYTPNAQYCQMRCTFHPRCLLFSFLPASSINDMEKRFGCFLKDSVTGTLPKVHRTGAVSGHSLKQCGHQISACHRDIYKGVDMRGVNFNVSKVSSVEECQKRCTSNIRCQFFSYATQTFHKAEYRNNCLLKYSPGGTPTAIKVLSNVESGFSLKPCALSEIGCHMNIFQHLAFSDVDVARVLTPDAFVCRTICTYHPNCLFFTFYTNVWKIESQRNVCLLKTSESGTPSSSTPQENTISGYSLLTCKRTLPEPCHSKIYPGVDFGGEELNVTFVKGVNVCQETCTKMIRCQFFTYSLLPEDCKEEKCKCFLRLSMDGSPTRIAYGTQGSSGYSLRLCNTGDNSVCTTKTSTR
Procedure: High molecular weight kininogen (HK) cleavage in undiluted citrated human plasma was induced by contact system activation with dextran sulfate (DXS, Sigma #31395-10G; 6.25 μg/ml) on wet ice. […] HAE plasma was obtained from HAE subjects (n=6) and C1-inhibitor deficiency was confirmed by western blotting. Protection of HK from PKa mediated cleavage in DXS-stimulated whole undiluted plasma was then determined by two methods; traditional western blotting and a semi-automated capillary-based immunoassay.
Western blotting: SDS-PAGE gel electrophoresis was done using 7.5% Criterion TGX Precast gels (Bio-rad). Transfer was made onto Immobilon-FL PVDF membrane. Image analysis was performed using the LICOR imaging system. Mouse monoclonal anti-human HK antibody (MAB15692, R&D systems) was used for traditional immunoblotting.
Capillary-Based Immunoassay on the WES System (ProteinSimple):
Preparation of samples: Combine one part 5× fluorescent master mix with four parts of the 1:200 plasma sample. Vortex to mix. Heat the samples+fluorescent master mix and the biotinylated ladder at 95° C. for 5 minutes, vortex, and load onto the WES plate. […] The peak area is defined as the area calculated for the spectral peak profile for HK. To measure the plasma kallikrein inhibition by the compound, the percent full-length HK detected was calculated.

[3] = Phase 2 study Part 2, efficacy in on-demand treatment of HAE attacks; assay type: in vivo, human
Procedure: In Part 2, the subjects were randomized 1:1 to 2 treatment sequences. This part of the study was conducted away from the clinic or hospital. In Sequence 1 (study arm 1) subjects received a single dose of 600 mg of the compound to treat the first eligible HAE attack. Following resolution of this attack, subjects received a single dose of placebo to treat the second eligible HAE attack.
In Sequence 2 (study arm 2) subjects received a single dose of placebo to treat the first eligible HAE attack. Following resolution of this attack, subjects received a single dose of 600 mg of the compound to treat the second eligible HAE attack.
Laryngeal or facial attacks were not eligible for treatment. HAE attacks must have been treated within the first hour of onset and before reaching severe on the global attack severity scale. Subjects must also have been able to identify the start of a HAE attack. Upon onset of the eligible HAE attack, subjects notified the dedicated study physician or qualified designee with a description of the HAE attack. The dedicated study physician or qualified designee confirmed eligibility of the HAE attack and agreed to study drug being administered. HAE attacks required documentation, on the Subject Diary, of attack location, attack symptoms, time of onset, attack severity, and time of last substantial meal prior to dosing. Subjects took study drug, as instructed, and completed timed assessments of their HAE attack symptoms for a 48 h period as documented below in Table 3. The dedicated study physician or qualified designee contacted the subject within 24 h of the eligible HAE attack to confirm the subject's safety and wellbeing. Subjects were instructed to contact the dedicated study physician or qualified designee in case of any safety concerns. In the case of hypersensitivity, subjects contacted the dedicated study physician or qualified designee or contact the nearest emergency service. The dedicated study physician or qualified designee was available 24 h/day and 7 days/week to receive subject calls.
Time to use of conventional attack treatment was assessed. The subject diary captured the efficacy endpoints including time to use of conventional attack treatment and HAE attack severity.
Overall HAE attack severity was assessed on a 5-point Likert scale (5LS) scored as none, mild, moderate, severe and very severe.
Change in HAE attack severity was assessed using a 7-point transition question (7TQ), scored as Much better/Better/A little better/No change/A little worse/Worse/Much worse.
The type of HAE attack symptoms (abdominal pain, skin pain and skin swelling) was each assessed on a 100 mm visual analogue scale (VAS) anchored at 0 (none) and 100 (very severe).
The primary endpoint, time to use of conventional attack treatment, was analyzed using a generalization of Gehan's test proposed by Feingold and Gillespie (1996) (Crossover trials with censored data. Statistics in Medicine 1996; 15(10): 953-967) to reflect the repeat measures on each subject. Subjects were treated as censored if no worsening occurs within 12 h of study drug.
The proportion of HAE attacks that worsen by one level or more on the 5LS or that require conventional attack treatment within 12 h of study drug was analyzed using Prescott's test (1981) (The comparison of success rates in cross-over trials in the presence of an order effect. Applied Statistics 1981; 30: 9-15) to compare the treatment arms.
A similar approach to that used for the primary endpoint was followed for the analysis of the time between study drug and HAE attack worsening by one level or more on the 5LS or use of conventional attack treatment, whichever comes first within 12 h. […]

[4] = Phase 2 study, safety (drug-related TEAEs); assay type: in vivo, human
Description: Safety Variables: • AEs, including serious adverse events (SAEs). • Laboratory test results (clinical chemistry, hematology, coagulation, and urinalysis). • Vital signs (SBP, DBP, PR, RR, body temperature). • Physical examination findings. • ECG results. • Pregnancy test (female subjects of child-bearing potential).
AEs were coded using the Medical Dictionary for Regulatory Activities (MedDRA) dictionary (v21.0 or higher) and classified by preferred term and system organ class (SOC). Listings of treatment-emergent adverse events (TEAEs), serious TEAEs, and TEAEs causing premature discontinuation will be provided by sequence group, and further classified by TEAE severity and relationship to study drug.

Compound: COCc1nn(Cc2ccc(Cn3ccccc3=O)cc2)cc1C(=O)NCc1nccc(OC)c1F [compound of Formula A, N-[(3-fluoro-4-methoxypyridin-2-yl)methyl]-3-(methoxymethyl)-1-({4-[(2-oxopyridin-1-yl)methyl]phenyl}methyl)pyrazole-4-carboxamide]
- tolerability [1]: no tolerability signals
- protection against HK cleavage [2]: dose dependent protection against HK cleavage
- PGI-C: Median time to HAE attack being (1) rated a little worse or higher for two consecutive time points, or (2) use of conventional attack treatment, whichever comes first ([3]; 600 mg, N = 53, at 12 hours): >12 h
- PGI-C: Median time to HAE attack being rated a little worse or higher for two consecutive time points ([3]; 600 mg, N = 53, at 12 hours): >12 h
- PGI-C: Proportion of HAE attacks that were stable or improved ([3]; 600 mg, N = 53, at 12 hours): 48 (90.6) n (%)
- PGI-S: Median time to HAE attack resolution (rating of none) ([3]; 600 mg, N = 53, at 12 hours): >12 h
- PGI-S: Median time to improvement by one level or more from baseline ([3]; 600 mg, N = 53, at 12 hours): 9.0 h
- PGI-S: Proportion of HAE attacks that improved by 1 level or more from baseline ([3]; 600 mg, N = 53, at 12 hours): 30 (56.6) n (%)
- PGI-S: Proportion of patients with HAE attack resolution (rating of none) ([3]; 600 mg, N = 53, at 12 hours): 20 (37.7) n (%)
- VAS: Proportion of HAE attacks with symptom relief (50% reduction from baseline in composite VAS for three consecutive time points) ([3]; 600 mg, N = 53, at 12 hours): 33 (62.3) n (%)
- PGI-C: Median time to HAE attack being (1) rated a little worse or higher for two consecutive time points, or (2) use of conventional attack treatment, whichever comes first ([3]; 600 mg, N = 53, at 24 hours): >24 h
- PGI-C: Median time to HAE attack being rated a little worse or higher for two consecutive time points ([3]; 600 mg, N = 53, at 24 hours): >24 h
- PGI-C: Proportion of HAE attacks that were stable or improved ([3]; 600 mg, N = 53, at 24 hours): 45 (84.9) n (%)
- PGI-S: Median time to HAE attack resolution (rating of none) ([3]; 600 mg, N = 53, at 24 hours): 18.0 h
- PGI-S: Median time to improvement by one level or more from baseline ([3]; 600 mg, N = 53, at 24 hours): 9.0 h
- PGI-S: Proportion of HAE attacks that improved by 1 level or more from baseline ([3]; 600 mg, N = 53, at 24 hours): 35 (66.0) n (%)
- PGI-S: Proportion of patients with HAE attack resolution (rating of none) ([3]; 600 mg, N = 53, at 24 hours): 28 (52.8) n (%)
- VAS: Proportion of HAE attacks with symptom relief (50% reduction from baseline in composite VAS for three consecutive time points) ([3]; 600 mg, N = 53, at 24 hours): 39 (73.6) n (%)
- severity of the HAE attack, composite VAS score ([3]; 600 mg, over 12 hours and 24 hours): reduced the severity of the HAE attack
- attacks improved to “none” on PGI-S (5LS) ([3]; 600 mg, within 12 hours): 37.7%
- number of attacks stabilized or improved by PGI-S (5LS) or use of rescue ([3]; 600 mg, within 12 hours): significantly increased the number of attacks stabilized or improved
- attacks improved to “none” on PGI-S (5LS) ([3]; 600 mg, within 24 hours): 52.8%
- Median time to symptom relief ([3]; abdominal attacks): 1.5 h
- attacks that achieved attack resolution within 24 hours ([3]; abdominal attacks): 61.1%
- attacks that achieved symptom relief (PGI-C at least “A little better” within 12 hours) ([3]; abdominal attacks): 77.8%
- Median time to symptom relief ([3]; peripheral attacks): 2.5 h
- attacks that achieved attack resolution within 24 hours ([3]; peripheral attacks): 50.0%
- attacks that achieved symptom relief (PGI-C at least “A little better” within 12 hours) ([3]; peripheral attacks): 77.5%
- on-treatment drug-related TEAE, number of events ([4]; Part 1, open-label phase): 8
- patients with on-treatment drug-related TEAE ([4]; Part 1, open-label phase): 5 patients
- on-treatment drug-related TEAE, number of events ([4]; Part 2, crossover phase): 3
- patients with on-treatment drug-related TEAE ([4]; Part 2, crossover phase): 5.2%
